# Measurements from patent US20260042764A1, “COMPOSITIONS AND METHODS FOR INHIBITION OF KRAS” (TheRas, Inc., priority 2022, published 2026).
# Target: T1, Avi-KRAS G12D (2-169) GTP/RAF1 RBD-3xFLAG (51-131) (Homo sapiens, UniProt P01116, G12D)
# T1 construct: Avi-KRAS G12D (2-169)
# Experiment: Raf1-KRAS G12D-GTP disruption HTRF assay (Biological Example 3)
# Format: binding
# Settings: KRAS G12D, GTP-loaded
# Procedure, shortened: (§1)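 50 nM Avi-KRAS (2-169) GTP/RAF1 RBD complex; 75 nM RBD-Avi; pH 7.5 Tris buffer, 10% DMSO; cpd 30 μM top, 3x, 10 pts; 1 h RT, 700 rpm; HTRF, % of DMSO.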
# T1 sequence (P01116 2-169 isoform P01116-2 G12D): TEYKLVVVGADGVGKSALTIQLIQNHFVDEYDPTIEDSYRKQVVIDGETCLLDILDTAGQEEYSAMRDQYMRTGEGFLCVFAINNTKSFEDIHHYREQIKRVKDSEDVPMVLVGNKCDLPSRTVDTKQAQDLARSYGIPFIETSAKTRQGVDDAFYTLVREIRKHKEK
row,SMILES,IC50
1,CCN(c1nc(OC[C@]23CCCN2C[C@H](F)C3)nc2c(F)c(-c3ccc(F)c4sc(N)c(C#N)c34)c(C(F)(F)F)cc12)[C@H]1CCN(C(=O)C(C)C)C1 [Compound 705],100 to 1000 nM
2,CCN(c1nc(OC[C@@H]2C[C@@H](OC)CN2C)nc2c(F)c(-c3ccc(F)c4sc(N)c(C#N)c34)c(C(F)(F)F)cc12)[C@H]1CCN(C(=O)C(C)C)C1 [Compound 706],100 to 1000 nM
3,CCN(c1nc(OCC23CCCN2CC(F)C3)nc2c(F)c(-c3ccc(F)c4sc(N)c(C#N)c34)c(C(F)(F)F)cc12)C1CC(C)N(C(=O)C2CC2(F)F)C1 (centres unmarked) [Compound 732],100 to 1000 nM
4,Cc1c(C(=O)N2CCOCC2)nn2c1CN(c1nc(OCC34CCCN3CC(F)C4)nc3c(F)c(-c4ccc(F)c5sc(N)c(C#N)c45)c(C(F)(F)F)cc13)CC2 (centres unmarked) [Compound 741],100 to 1000 nM
5,Cc1c(C(=O)N2CCCC2)nn2c1CN(c1nc(OCC34CCCN3CC(F)C4)nc3c(F)c(-c4ccc(F)c5sc(N)c(C#N)c45)c(C(F)(F)F)cc13)CC2 (centres unmarked) [Compound 744],100 to 1000 nM

# Target: T2, Avi-KRAS G12R (1-169) GppNHp/RAF1 RBD-3xFLAG (52-151) (Homo sapiens, UniProt P01116, G12R)
# T2 construct: Avi-KRAS G12R (1-169)
# Experiment: Raf1-KRAS G12R-GppNHP disruption HTRF assay (Biological Example 1)
# Format: binding
# Settings: KRAS G12R, GppNHp-loaded; class symbols
# Procedure, shortened: (§2)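 Using HTRF, the loss of KRAS–effector RAF1 complex was quantified in 50 mM Tris pH 7.5 buffer with 100 mM NaCl and 0.1% BSA. The protein step and reagent step ran 1 h each at room temperature. Activity normalized with DMSO taken as 100%.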
# T2 sequence (P01116 1-169 isoform P01116-2 G12R): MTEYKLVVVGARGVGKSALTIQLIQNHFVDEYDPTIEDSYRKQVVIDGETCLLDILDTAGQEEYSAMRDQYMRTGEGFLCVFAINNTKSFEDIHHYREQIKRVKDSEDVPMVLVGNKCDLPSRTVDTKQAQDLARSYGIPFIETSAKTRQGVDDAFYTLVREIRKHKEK
row,SMILES,IC50
1,CCN(c1nc(OC[C@]23CCCN2C[C@H](F)C3)nc2c(F)c(-c3ccc(F)c4sc(N)c(C#N)c34)c(C(F)(F)F)cc12)[C@H]1CCN(C(=O)C(C)C)C1 [Compound 705],< 100 nM
2,CCN(c1nc(OC[C@@H]2C[C@@H](OC)CN2C)nc2c(F)c(-c3ccc(F)c4sc(N)c(C#N)c34)c(C(F)(F)F)cc12)[C@H]1CCN(C(=O)C(C)C)C1 [Compound 706],100 to 1000 nM
3,CCN(c1nc(OCC23CCCN2CC(F)C3)nc2c(F)c(-c3ccc(F)c4sc(N)c(C#N)c34)c(C(F)(F)F)cc12)C1CC(C)N(C(=O)C2CC2(F)F)C1 (centres unmarked) [Compound 732],< 100 nM
4,Cc1c(C(=O)N2CCOCC2)nn2c1CN(c1nc(OCC34CCCN3CC(F)C4)nc3c(F)c(-c4ccc(F)c5sc(N)c(C#N)c45)c(C(F)(F)F)cc13)CC2 (centres unmarked) [Compound 741],100 to 1000 nM
5,Cc1c(C(=O)N2CCCC2)nn2c1CN(c1nc(OCC34CCCN3CC(F)C4)nc3c(F)c(-c4ccc(F)c5sc(N)c(C#N)c45)c(C(F)(F)F)cc13)CC2 (centres unmarked) [Compound 744],100 to 1000 nM

# Target: T3, Avi-KRAS G12V (1-169) GppNHp/RAF1 RBD-3xFLAG (52-151) (Homo sapiens, UniProt P01116, G12V)
# T3 construct: Avi-KRAS G12V (1-169)
# Experiment: Raf1-KRAS G12V-GppNHP disruption HTRF assay (Biological Example 1)
# Format: binding
# Settings: KRAS G12V, GppNHp-loaded; class symbols
# Procedure, shortened: as §2
# T3 sequence (P01116 1-169 isoform P01116-2 G12V): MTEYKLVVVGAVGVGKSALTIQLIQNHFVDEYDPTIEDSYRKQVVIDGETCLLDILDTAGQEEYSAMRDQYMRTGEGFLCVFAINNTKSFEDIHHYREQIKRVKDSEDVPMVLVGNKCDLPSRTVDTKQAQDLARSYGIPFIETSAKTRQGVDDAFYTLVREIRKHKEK
row,SMILES,IC50
1,CCN(c1nc(OC[C@]23CCCN2C[C@H](F)C3)nc2c(F)c(-c3ccc(F)c4sc(N)c(C#N)c34)c(C(F)(F)F)cc12)[C@H]1CCN(C(=O)C(C)C)C1 [Compound 705],100 to 1000 nM
2,CCN(c1nc(OC[C@@H]2C[C@@H](OC)CN2C)nc2c(F)c(-c3ccc(F)c4sc(N)c(C#N)c34)c(C(F)(F)F)cc12)[C@H]1CCN(C(=O)C(C)C)C1 [Compound 706],100 to 1000 nM
3,CCN(c1nc(OCC23CCCN2CC(F)C3)nc2c(F)c(-c3ccc(F)c4sc(N)c(C#N)c34)c(C(F)(F)F)cc12)C1CC(C)N(C(=O)C2CC2(F)F)C1 (centres unmarked) [Compound 732],< 100 nM
4,Cc1c(C(=O)N2CCOCC2)nn2c1CN(c1nc(OCC34CCCN3CC(F)C4)nc3c(F)c(-c4ccc(F)c5sc(N)c(C#N)c45)c(C(F)(F)F)cc13)CC2 (centres unmarked) [Compound 741],100 to 1000 nM
5,Cc1c(C(=O)N2CCCC2)nn2c1CN(c1nc(OCC34CCCN3CC(F)C4)nc3c(F)c(-c4ccc(F)c5sc(N)c(C#N)c45)c(C(F)(F)F)cc13)CC2 (centres unmarked) [Compound 744],100 to 1000 nM

# Target: T4, Avi-KRAS G12V (2-169) GTP/RAF1 RBD-3xFLAG (51-131) (Homo sapiens, UniProt P01116, G12V)
# T4 construct: Avi-KRAS G12V (2-169)
# Experiment: Raf1-KRAS G12V-GTP disruption HTRF assay (Biological Example 3)
# Format: binding
# Settings: KRAS G12V, GTP-loaded
# Procedure, shortened: as §1
# T4 sequence (P01116 2-169 isoform P01116-2 G12V): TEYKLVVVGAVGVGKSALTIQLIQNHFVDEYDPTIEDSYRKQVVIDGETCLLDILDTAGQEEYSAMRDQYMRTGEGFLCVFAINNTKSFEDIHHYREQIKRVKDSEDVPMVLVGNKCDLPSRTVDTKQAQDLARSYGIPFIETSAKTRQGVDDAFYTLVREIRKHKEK
row,SMILES,IC50
1,CCN(c1nc(OC[C@]23CCCN2C[C@H](F)C3)nc2c(F)c(-c3ccc(F)c4sc(N)c(C#N)c34)c(C(F)(F)F)cc12)[C@H]1CCN(C(=O)C(C)C)C1 [Compound 705],100 to 1000 nM
2,CCN(c1nc(OC[C@@H]2C[C@@H](OC)CN2C)nc2c(F)c(-c3ccc(F)c4sc(N)c(C#N)c34)c(C(F)(F)F)cc12)[C@H]1CCN(C(=O)C(C)C)C1 [Compound 706],1000 to 10000 nM
3,CCN(c1nc(OCC23CCCN2CC(F)C3)nc2c(F)c(-c3ccc(F)c4sc(N)c(C#N)c34)c(C(F)(F)F)cc12)C1CC(C)N(C(=O)C2CC2(F)F)C1 (centres unmarked) [Compound 732],100 to 1000 nM
4,Cc1c(C(=O)N2CCOCC2)nn2c1CN(c1nc(OCC34CCCN3CC(F)C4)nc3c(F)c(-c4ccc(F)c5sc(N)c(C#N)c45)c(C(F)(F)F)cc13)CC2 (centres unmarked) [Compound 741],100 to 1000 nM
5,Cc1c(C(=O)N2CCCC2)nn2c1CN(c1nc(OCC34CCCN3CC(F)C4)nc3c(F)c(-c4ccc(F)c5sc(N)c(C#N)c45)c(C(F)(F)F)cc13)CC2 (centres unmarked) [Compound 744],100 to 1000 nM

# Target: T5, Avi-KRAS WT (2-169) GTP/RAF1 RBD-3xFLAG (51-131) (Homo sapiens, UniProt P01116)
# T5 construct: Avi-KRAS WT (2-169)
# Experiment: Raf1-KRAS WT-GTP disruption HTRF assay (Biological Example 3)
# Format: binding
# Settings: KRAS WT, GTP-loaded
# Procedure, shortened: as §1
# T5 sequence (P01116 2-169 isoform P01116-2): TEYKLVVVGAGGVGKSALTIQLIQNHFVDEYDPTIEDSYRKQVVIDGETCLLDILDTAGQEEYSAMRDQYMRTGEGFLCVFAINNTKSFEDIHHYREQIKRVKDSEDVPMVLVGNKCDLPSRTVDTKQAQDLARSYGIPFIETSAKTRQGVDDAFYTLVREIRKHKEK
row,SMILES,IC50
1,CCN(c1nc(OC[C@]23CCCN2C[C@H](F)C3)nc2c(F)c(-c3ccc(F)c4sc(N)c(C#N)c34)c(C(F)(F)F)cc12)[C@H]1CCN(C(=O)C(C)C)C1 [Compound 705],100 to 1000 nM
2,CCN(c1nc(OC[C@@H]2C[C@@H](OC)CN2C)nc2c(F)c(-c3ccc(F)c4sc(N)c(C#N)c34)c(C(F)(F)F)cc12)[C@H]1CCN(C(=O)C(C)C)C1 [Compound 706],1000 to 10000 nM
3,CCN(c1nc(OCC23CCCN2CC(F)C3)nc2c(F)c(-c3ccc(F)c4sc(N)c(C#N)c34)c(C(F)(F)F)cc12)C1CC(C)N(C(=O)C2CC2(F)F)C1 (centres unmarked) [Compound 732],100 to 1000 nM
4,Cc1c(C(=O)N2CCOCC2)nn2c1CN(c1nc(OCC34CCCN3CC(F)C4)nc3c(F)c(-c4ccc(F)c5sc(N)c(C#N)c45)c(C(F)(F)F)cc13)CC2 (centres unmarked) [Compound 741],100 to 1000 nM
5,Cc1c(C(=O)N2CCCC2)nn2c1CN(c1nc(OCC34CCCN3CC(F)C4)nc3c(F)c(-c4ccc(F)c5sc(N)c(C#N)c45)c(C(F)(F)F)cc13)CC2 (centres unmarked) [Compound 744],100 to 1000 nM

# System: GP2d cells (KRAS G12D)
# Experiment: Cell-based pERK HTRF assay in GP2d cell (Biological Example 2)
# Settings: GP2d (KRAS G12D) cells
# Procedure, shortened: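 Phospho-ERK is measured by HTRF following a 60 min compound exposure at 0.25% DMSO, with a 9-point half-log curve topping at 1 μM or 100 nM.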
row,SMILES,IC50
1,CCN(c1nc(OCC23CCCN2CC(F)C3)nc2c(F)c(-c3ccc(F)c4sc(N)c(C#N)c34)c(C(F)(F)F)cc12)C1CC(C)N(C(=O)C2CC2(F)F)C1 (centres unmarked) [Compound 732],< 100 nM

# Same assay, conditions: GP2d (KRAS G12D) cells, pERK HTRF; class symbols
row,SMILES,IC50
1,CCN(c1nc(OCC23CCCN2CC(F)C3)nc2c(F)c(-c3ccc(F)c4sc(N)c(C#N)c34)c(C(F)(F)F)cc12)C1CC(C)N(C(=O)C2CC2(F)F)C1 (centres unmarked) [Compound 732],< 100 nM

# Same assay, conditions: GP2d, GP2d (KRAS G12D) cells
row,SMILES,IC50
1,CCN(c1nc(OC[C@]23CCCN2C[C@H](F)C3)nc2c(F)c(-c3ccc(F)c4sc(N)c(C#N)c34)c(C(F)(F)F)cc12)[C@H]1CCN(C(=O)C(C)C)C1 [Compound 705],< 100 nM
2,CCN(c1nc(OC[C@@H]2C[C@@H](OC)CN2C)nc2c(F)c(-c3ccc(F)c4sc(N)c(C#N)c34)c(C(F)(F)F)cc12)[C@H]1CCN(C(=O)C(C)C)C1 [Compound 706],< 100 nM
3,Cc1c(C(=O)N2CCOCC2)nn2c1CN(c1nc(OCC34CCCN3CC(F)C4)nc3c(F)c(-c4ccc(F)c5sc(N)c(C#N)c45)c(C(F)(F)F)cc13)CC2 (centres unmarked) [Compound 741],< 100 nM
4,Cc1c(C(=O)N2CCCC2)nn2c1CN(c1nc(OCC34CCCN3CC(F)C4)nc3c(F)c(-c4ccc(F)c5sc(N)c(C#N)c45)c(C(F)(F)F)cc13)CC2 (centres unmarked) [Compound 744],< 100 nM

# Same assay, conditions: GP2d, GP2d (KRAS G12D) cells, pERK HTRF; class symbols
row,SMILES,IC50
1,CCN(c1nc(OC[C@]23CCCN2C[C@H](F)C3)nc2c(F)c(-c3ccc(F)c4sc(N)c(C#N)c34)c(C(F)(F)F)cc12)[C@H]1CCN(C(=O)C(C)C)C1 [Compound 705],< 100 nM
2,CCN(c1nc(OC[C@@H]2C[C@@H](OC)CN2C)nc2c(F)c(-c3ccc(F)c4sc(N)c(C#N)c34)c(C(F)(F)F)cc12)[C@H]1CCN(C(=O)C(C)C)C1 [Compound 706],< 100 nM
3,Cc1c(C(=O)N2CCOCC2)nn2c1CN(c1nc(OCC34CCCN3CC(F)C4)nc3c(F)c(-c4ccc(F)c5sc(N)c(C#N)c45)c(C(F)(F)F)cc13)CC2 (centres unmarked) [Compound 741],< 100 nM
4,Cc1c(C(=O)N2CCCC2)nn2c1CN(c1nc(OCC34CCCN3CC(F)C4)nc3c(F)c(-c4ccc(F)c5sc(N)c(C#N)c45)c(C(F)(F)F)cc13)CC2 (centres unmarked) [Compound 744],< 100 nM
